Reference: patent publication US7208178B2, “Polymorphs of sodium 4-[(4-chloro-2-hydroxybenzoyl) amino] butanoate” (Emisphere Technologies, Inc., priority 2000, dated 2007)

Assay: Solid-state stability of amorphous form at ambient conditions
Type: physicochemical
Details: amorphous form prepared by solidification, from solution or lyophilization

Question: Which “stability at ambient conditions” value does the source give for `O=C(O)CCCNC(=O)c1ccc(Cl)cc1O` [amorphous form, sodium 4-[(4-chloro-2-hydroxybenzoyl)amino]butanoate] here?
Answer: The value was “unstable at ambient conditions and transforms to Form II”.
